Experiments:
Taq DNA polymerase = molecular target: T1, Taq DNA polymerase (Thermus aquaticus, UniProt P19821); assay: Primer extension assay with a single nucleotide, TOP primer/BOT template duplexes (FIG. 1); assay type: biochemical; conditions: for DNA strand extension and misincorporation on a template with multiple Ts: template BOT-3TC, lanes 10, 11
T1 construct: purchased Promega Corporation
Method: The ability of a commercially available polymerase to incorporate the novel dNTPs synthesized was monitored using primer extension assays.
This first example illustrates the incorporation of ANS-γ-phosphate dATP to produce extended DNA products from primer/template duplexes. The reactions were carried out in extension buffer and the resulting radiolabeled products were size separated on a 20% denaturing polyacrylamide gel. Data were collected using a phosphorimaging system. Referring now FIG. 1, Lane 1 contained 5′ radiolabeled ‘TOP’ probe in extension buffer. Lane 2 contained Taq DNA polymerase, 50 μM dGTP incubated with a DNA duplex (radiolabeled TOP with excess ‘BOT-Sau’). Lane 3 contained Taq DNA polymerase, 50 μM dATP incubated with a DNA duplex (radiolabeled TOP with excess ‘BOT-Sau’). Lane 4 contained Taq DNA polymerase, 50 μM ANS-γ-dATP incubated with a DNA duplex (radiolabeled TOP with excess ‘BOT-Sau’). Lane 5 contained Taq DNA polymerase, 50 μM dGTP incubated with a DNA duplex (radiolabeled TOP with excess ‘BOT-TC’). Lane 6 contained spill-over from lane 5. Lane 7 contained Taq DNA polymerase, 50 μM dATP incubated with a DNA duplex (radiolabeled TOP with excess ‘BOT-TC’). Lane 8 contained Taq DNA polymerase, 50 μM ANS-γ-dATP incubated with a DNA duplex (radiolabeled TOP with excess ‘BOT-TC’). Lane 9 contained Taq DNA polymerase, 50 μM dGTP incubated with a DNA duplex (radiolabeled TOP with excess ‘BOT-3TC’). Lane 10 contained Taq DNA polymerase, 50 μM dATP incubated with a DNA duplex (radiolabeled TOP with excess ‘BOT-3TC’). Lane 11 contained Taq DNA polymerase, ANS-γ-dATP incubated with a DNA duplex (radiolabeled TOP with excess ‘BOT-3TC’). Lane 12 contained 5′ radiolabeled ‘TOP’ probe in extension buffer. Lane 13 contained 5′ radiolabeled ‘TOP’ probe and Taq DNA polymerase in extension buffer.
In these experiments, Taq DNA polymerase (2.5 units/reaction; Promega Corporation) was incubated in polymerase reaction buffer with 10,000 cpm of 5′-^32P end-labeled ‘TOP’ primer, 10 ng of the indicated single-stranded template, and the specified dNTP. The sequences of the oligonucleotides are shown (Table 1). Extension reactions were incubated for 30 minutes, and terminated by the addition of 1 µl of 0.5 M EDTA. The reactions were lyophilized and resuspended in 3.5 µl of sequencing loading buffer. Reaction products were heat denatured, loaded onto a 20% denaturing polyacrylamide gel, size-separated, and quantified using a phosphorimaging system (Fuji Medical Systems, Inc.).

DNA polymerases = assay: Primer extension with several different DNA polymerases, template directing dATP, dATP, dATP, dGTP (FIG. 12); assay type: biochemical; conditions: only the indicated nucleotide, 100 μM, 30 minutes
Method: Different Polymerases React Differently to the ANS-γ-modified Nucleotides: primer extension reactions were performed to determine the ability of various polymerases to incorporate γ-tagged dNTPs during DNA polymerization. Control reactions contained natural dNTPs to monitor for template-directed nucleotide incorporation as well as for misincorporation as shown in FIG. 12. The reactions were performed in the appropriate buffer and contained the specified polymerase, primer/template duplex (radiolabeled ‘TOP’ primer annealed to ‘BOT-3TC’ template), and only the indicated dNTP. The reactions were carried out at room temperature or at 37° C. for 30 minutes and were stopped by the addition of […]. The volume of the reaction was then reduced to approximately 2-4 μL, loading dye was added and the polymerization products were electrophoresed through a 20% denaturing polyacrylamide gel. Arrows indicate the position of the free labeled ‘TOP’. Asterisks indicate 3-base extension.
Primer extension experiments were performed with several different DNA polymerases to determine whether any of them could incorporate the ANS-γ-phosphate modified nucleotides (FIG. 12). These experiments were performed by incubating the indicated polymerase in appropriate extension buffer, 100 μM ANS-γ-modified dATP, and a 5′-^32P end-labeled primer annealed to a template that directed sequential incorporation of dATP, dATP, dATP dGTP. Positive and negative control reactions containing natural dATP or dGTP, respectively, were run in parallel to monitor template-directed nucleotide incorporation or mis-incorporation. Reactions containing dATP should produce 3-base extension products, whereas those containing dGTP should not produce extended products (due to the absence of dATP). No products longer than 3-bases should result, since no reaction contained more than one nucleotide type. […] Reaction products were heat denatured, loaded onto a 20% denaturing polyacrylamide gel, size-separated (2400 V; 1 hour), and detected via phosphorimaging.

[1] = template BOT-3TC (three A's to be incorporated), lanes 9-11
[2] = template BOT-Sau (first incorporated base should be dGTP), 50 μM nucleotide, lanes 2-4
[3] = template BOT-TC (single A to be incorporated), 50 μM nucleotide, lanes 5-8

T1 sequence (P19821 whole entry): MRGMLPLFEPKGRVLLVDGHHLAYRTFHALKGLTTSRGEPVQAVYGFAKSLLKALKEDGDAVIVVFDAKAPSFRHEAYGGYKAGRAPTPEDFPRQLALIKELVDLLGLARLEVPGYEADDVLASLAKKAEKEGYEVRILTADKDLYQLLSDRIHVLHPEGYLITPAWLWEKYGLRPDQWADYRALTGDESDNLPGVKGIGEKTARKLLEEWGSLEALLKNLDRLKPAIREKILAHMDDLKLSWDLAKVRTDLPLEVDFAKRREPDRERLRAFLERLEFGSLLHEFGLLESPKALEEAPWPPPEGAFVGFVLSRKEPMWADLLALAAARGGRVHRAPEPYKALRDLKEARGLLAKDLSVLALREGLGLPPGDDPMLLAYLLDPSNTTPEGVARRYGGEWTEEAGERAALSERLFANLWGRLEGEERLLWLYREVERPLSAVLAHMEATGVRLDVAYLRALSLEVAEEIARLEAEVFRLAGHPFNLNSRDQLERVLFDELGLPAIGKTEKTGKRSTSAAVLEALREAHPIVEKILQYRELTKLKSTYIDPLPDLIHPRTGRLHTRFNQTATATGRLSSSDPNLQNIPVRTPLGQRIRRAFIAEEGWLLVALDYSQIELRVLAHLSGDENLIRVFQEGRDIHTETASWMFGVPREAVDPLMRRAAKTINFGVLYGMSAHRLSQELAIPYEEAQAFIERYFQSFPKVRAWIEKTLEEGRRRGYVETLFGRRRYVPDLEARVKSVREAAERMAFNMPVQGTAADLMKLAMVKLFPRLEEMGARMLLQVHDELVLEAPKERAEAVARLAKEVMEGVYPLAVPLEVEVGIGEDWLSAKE

Molecule	Percent Correct (Taq DNA polymerase; [1])	Percent Mis-Extended (Taq DNA polymerase; [1])	Total Percent Extended (Taq DNA polymerase; [1])	DNA strand extension and misincorporation on a template with multiple Ts (Taq DNA polymerase)	Percent Correct (Taq DNA polymerase; [2])	Percent Mis-Extended (Taq DNA polymerase; [2])	Total Percent Extended (Taq DNA polymerase; [2])	Percent Correct (Taq DNA polymerase; [3])	Percent Mis-Extended (Taq DNA polymerase; [3])	Total Percent Extended (Taq DNA polymerase; [3])	percent extension of the TOP primer (template-directed single base) (Taq DNA polymerase; template BOT-TC, first incorporated base should be dATP, lanes 7, 8)	extension products misextended opposite a template C (Taq DNA polymerase; template BOT-TC, lane 7, percent of the extension products)	misextended products further extended by the enzyme's terminal transferase activity (Taq DNA polymerase; template BOT-TC, lane 7, percent of the misextended products)	extension products formed (DNA polymerases)	decrease in misextensions, tagged nucleotide versus dATP (Taq DNA polymerase; G is to be incorporated, dATP the only nucleotide in the reaction medium)	decrease in misextensions, tagged nucleotide versus dATP (Taq DNA polymerase; a single A is to be incorporated)	non-specific, single-base extension (Taq DNA polymerase; template BOT-Sau, first incorporated base should be dGTP (not added), lane 4 vs lane 1)	decrease in misextensions, tagged nucleotide versus dATP (Taq DNA polymerase; three A's are to be incorporated)
Nc1ncnc2c1ncn2[C@H]1C[C@H](O)[C@@H](COP(=O)(O)OP(=O)(O)OP(=O)(O)O)O1 [dATP]	27.11%	54.92%	82.03%	frequently misincorporated opposite a template C	61.99%	38.01%	38.01%	15.24%	69.01%	84.25%	75%	60%	34%	increased amounts of mis-extended products				
Nc1nc2c(ncn2[C@H]2C[C@H](O)[C@@H](COP(=O)(O)OP(=O)(O)OP(=O)(O)O)O2)c(=O)[nH]1 [dGTP]	32.20%	67.80%	67.80%		52.99%	19.97%	72.97%	24.99%	75.01%	75.01%				increased amounts of mis-extended products				
ANS γ-phosphoamide dATP [ANS-γ-dATP]	73.43%	3.87%	77.31%	multiple modified nucleotides are incorporated	87.43%	12.57%	12.57%	71.14%	6.51%	77.64%				expected 3-base extension products accumulate	~3 fold	~11 fold	very little non-specific, single-base extension	~14 fold
